According to patent publication US20250288584A1, “COMBINATIONS COMPRISING POSITIVE ALLOSTERIC MODULATORS OR ORTHOSTERIC AGONISTS OF METABOTROPIC GLUTAMATERGIC RECEPTOR SUBTYPE 2 AND THEIR USE” (JANSSEN PHARMACEUTICA NV, priority 2014, published 2025):
“And” between values parts separate entries of the source, which are not always exact repeats. Equal values may be shown once. Read-outs that look alike come from different tables or passages of the source. One block for each compound: values may come before it.

Key:
Assay type in all cases: in vivo, mice
[1] = tested on: 6 Hz (32 mA) psychomotor seizures; experiment: 6 Hz psychomotor seizure test, 32 mA (incl. TPE determination); conditions: for ED50: Mus musculus, read-out: ED50 (95% CI) 32 mA
Method in brief: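 Mice dosed s.c. into a loose skin fold (one compound p.o.) at 0.01 mL/g body weight. Focal seizures induced by corneal stimulation (6 Hz, 0.2 msec rectangular pulse, 3 sec) at 32 mA; absence of stun, forelimb clonus, vibrissae twitching and Straub-tail scored as protection. TPE determined in this assay; ED50 from evenly spaced doses.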

[2] = Minimal motor impairment (rotarod)
[3] = Plasma and brain levels (pK/pD analysis); conditions: for concentration at 0.5 h / concentration at 1 h: mouse; for concentration at 0.5 h: subcutaneous; for concentration at 1 h: intraperitoneal
Experimental: In various tests, animals were sacrificed following testing, and trunk blood and/or brain tissue (whole brains) was collected for quantification of drug levels. Immediately after testing, animals were decapitated and trunk blood was collected into a BD Vacutainer® tube containing K2EDTA and chilled on ice until centrifugation. Following centrifugation (13000-18000 rpm, 5-7 min), the plasma was removed and transferred to a labeled microcentrifuge tube and stored at −80° C. For brain tissue collection, brains were removed immediately following decapitation and flash frozen. The frozen sample was placed in a labeled centrifuge tube and stored at −80° C.
In addition to recording the efficacy and toxicity data for these compounds alone or in combination, both plasma and brain samples were collected from each of the groups for pharmacokinetic/pharmacokinetic analysis.

[4] = LEV 10 mg/kg combined with Co. No. 2 3 mg/kg, 6 Hz 44 mA

Mean Plasma Level Co. No. 1, statistical outlier removed ([3]; Co. No. 1 2.5 mg/kg combined with LEV 10 mg/kg): (390) ng/ml
concentration at 0.5 h ([3]; plasma, 2.5 mg/kg, Mean Plasma Levels (non-combination) Co. No. 1, Co. No. 1 2.5 mg/kg alone): 438 ng/mL
concentration at 0.5 h ([3]; plasma, Mean Plasma Level Co. No. 1, Co. No. 1 2.5 mg/kg combined with LEV 10 mg/kg): 657 ng/mL
SMILES: Fc1ccc(N2CCN(Cc3ccn4c(CC5CC5)nnc4c3C(F)(F)F)CC2)c(F)c1 [Co. No. 1]
# protected/# tested ([1]; 0.5 mg/kg s.c., 0.5 h): 1/8
# protected/# tested ([1]; 2.5 mg/kg s.c., 0.25 h): 1/8
# protected/# tested ([1]; 2.5 mg/kg s.c., 0.5 h): 5/8 and 7/16
# protected/# tested ([1]; 5 mg/kg s.c., 0.25 h): 8/12
# protected/# tested ([1]; 5 mg/kg s.c., 0.5 h): 8/12
# protected/# tested ([1]; 10 mg/kg s.c., 0.25 h): 4/4
# protected/# tested ([1]; 10 mg/kg s.c., 0.5 h): 4/4 and 7/8
# protected/# tested ([1]; 10 mg/kg s.c., 1 h): 3/4
# protected/# tested ([1]; 10 mg/kg s.c., 2 h): 0/4
# protected/# tested ([1]; 10 mg/kg s.c., 4 h): 0/4
# protected/# tested ([1]; 20 mg/kg s.c., 0.5 h): 8/8
ED50 ([1]; sc, at TPE): 2.8 mg/kg
ED50 (95% CI) 32 mA ([1]; s.c., at TPE): ED50 (95% CI): 2.8 mg/kg (1.3 to 4.3)
# rotarod motor impairment/# tested ([2]; 0.5 mg/kg s.c., 0.5 h, 32 mA group): 0/8
# rotarod motor impairment/# tested ([2]; 2.5 mg/kg s.c., 0.25 h, 32 mA group): 0/0
# rotarod motor impairment/# tested ([2]; 2.5 mg/kg s.c., 0.5 h, 32 mA group): 0/0 and 0/16
# rotarod motor impairment/# tested ([2]; 2.5 mg/kg s.c., 0.5 h, 44 mA group): 0/8
# rotarod motor impairment/# tested ([2]; 5 mg/kg s.c., 0.25 h, 32 mA group): 0/0
# rotarod motor impairment/# tested ([2]; 5 mg/kg s.c., 0.5 h, 32 mA group): 0/0 and 0/12
# rotarod motor impairment/# tested ([2]; 10 mg/kg s.c., 0.25 h, 32 mA group): 0/0
# rotarod motor impairment/# tested ([2]; 10 mg/kg s.c., 0.5 h, 32 mA group): 0/0 and 0/8
# rotarod motor impairment/# tested ([2]; 10 mg/kg s.c., 0.5 h, 44 mA group): 0/8
# rotarod motor impairment/# tested ([2]; 10 mg/kg s.c., 1 h, 32 mA group): 0/0
# rotarod motor impairment/# tested ([2]; 10 mg/kg s.c., 2 h, 32 mA group): 0/0
# rotarod motor impairment/# tested ([2]; 10 mg/kg s.c., 4 h, 32 mA group): 0/0
# rotarod motor impairment/# tested ([2]; 15 mg/kg s.c., 0.5 h, 44 mA group): 0/8
# rotarod motor impairment/# tested ([2]; 20 mg/kg s.c., 0.5 h, 32 mA group): 1/8
# rotarod motor impairment/# tested ([2]; 20 mg/kg s.c., 0.5 h, 44 mA group): 1/8

SMILES: C[C@H](Oc1ccc(F)cc1F)c1ccn2c(CC3CC3)nnc2c1C(F)(F)F [Co. No. 6-b, 3-(Cyclopropylmethyl)-7-[(1S)-1-(2,4-difluorophenoxy)ethyl]-8-(trifluoromethyl)[1,2,4]triazolo[4,3-a]pyridine]
# protected/# tested ([1]; 2.5 mg/kg p.o., 0.5 h): 1/8
# protected/# tested ([1]; 5 mg/kg p.o., 0.5 h): 2/8
# protected/# tested ([1]; 10 mg/kg p.o., 0.25 h): 1/4
# protected/# tested ([1]; 10 mg/kg p.o., 0.5 h): 3/4 and 6/8
# protected/# tested ([1]; 10 mg/kg p.o., 1 h): 0/4
# protected/# tested ([1]; 10 mg/kg p.o., 2 h): 1/4
# protected/# tested ([1]; 10 mg/kg p.o., 4 h): 0/4
# protected/# tested ([1]; 20 mg/kg p.o., 0.25 h): 4/4
# protected/# tested ([1]; 20 mg/kg p.o., 0.5 h): 3/4 and 7/8
# protected/# tested ([1]; 20 mg/kg p.o., 1 h): 4/4
# protected/# tested ([1]; 20 mg/kg p.o., 2 h): 0/4
# protected/# tested ([1]; 20 mg/kg p.o., 4 h): 1/4
ED50 ([1]; po, 0.5 h, p.o., 0.5 h TPE): 7.2 mg/kg
ED50 (95% CI) 32 mA ([1]; p.o., 0.5 h TPE): ED50 (95% CI): 7.2 mg/kg (4.2 to 11.8)
# rotarod motor impairment/# tested ([2]; 2.5 mg/kg p.o., 0.5 h, 32 mA group): 0/8
# rotarod motor impairment/# tested ([2]; 5 mg/kg p.o., 0.5 h, 32 mA group): 0/8
# rotarod motor impairment/# tested ([2]; 10 mg/kg p.o., 0.25 h, 32 mA group): 0/4
# rotarod motor impairment/# tested ([2]; 10 mg/kg p.o., 0.5 h, 32 mA group): 0/4 and 0/8
# rotarod motor impairment/# tested ([2]; 10 mg/kg p.o., 0.5 h, 44 mA group): 0/8
# rotarod motor impairment/# tested ([2]; 10 mg/kg p.o., 1 h, 32 mA group): 0/4
# rotarod motor impairment/# tested ([2]; 10 mg/kg p.o., 2 h, 32 mA group): 0/4
# rotarod motor impairment/# tested ([2]; 10 mg/kg p.o., 4 h, 32 mA group): 0/4
# rotarod motor impairment/# tested ([2]; 15 mg/kg p.o., 0.5 h, 44 mA group): 0/8
# rotarod motor impairment/# tested ([2]; 20 mg/kg p.o., 0.25 h, 32 mA group): 0/4
# rotarod motor impairment/# tested ([2]; 20 mg/kg p.o., 0.5 h, 32 mA group): 0/4 and 0/8
# rotarod motor impairment/# tested ([2]; 20 mg/kg p.o., 0.5 h, 44 mA group): 0/8
# rotarod motor impairment/# tested ([2]; 20 mg/kg p.o., 1 h, 32 mA group): 0/4
# rotarod motor impairment/# tested ([2]; 20 mg/kg p.o., 2 h, 32 mA group): 0/4
# rotarod motor impairment/# tested ([2]; 20 mg/kg p.o., 4 h, 32 mA group): 0/4
# rotarod motor impairment/# tested ([2]; 40 mg/kg p.o., 0.5 h, 44 mA group): 0/8

concentration at 1 h ([3]; brain, 10 mg/kg, LEV 10 mg/kg alone (Co. No. 2 study), read-out: Mean Brain Level (non-combination) LEV): 5770 ng/mL
concentration at 1 h ([3]; brain, LEV 10 mg/kg combined with Co. No. 2 3 mg/kg, read-out: Mean Brain Level LEV): 5880 ng/mL
concentration at 1 h ([3]; plasma, 10 mg/kg, LEV 10 mg/kg alone (Co. No. 1 study), read-out: Mean Plasma Levels (non-combination) LEV): 8250 ng/mL
concentration at 1 h ([3]; plasma, 10 mg/kg, LEV 10 mg/kg alone (Co. No. 2 study), read-out: Mean Plasma Level (non-combination) LEV): 8750 ng/mL
concentration at 1 h ([3]; plasma, LEV 10 mg/kg combined with Co. No. 1 2.5 mg/kg, 6 Hz 44 mA, read-out: Plasma (ng/ml) LEV, individual mice): 10300 ng/mL
concentration at 1 h ([3]; plasma, LEV 10 mg/kg combined with Co. No. 1 2.5 mg/kg, read-out: Mean Plasma Level LEV): 10300 ng/mL
concentration at 1 h ([3]; plasma, LEV 10 mg/kg combined with Co. No. 2 3 mg/kg, read-out: Mean Plasma Level LEV): 5510 ng/mL
SMILES: CC[C@@H](C(N)=O)N1CCCC1=O [LEV, (S)-2-(2-oxopyrrolidin-1-yl) butanamide, reference compound]
# motortox/# tested ([2]; LEV alone 10 mg/kg i.p., 1 h, 44 mA group): 0/6 and 0/8
# rotarod motor impairment/# tested ([2]; LEV alone 200 mg/kg): 0/8
# rotarod motor impairment/# tested ([2]; LEV alone 200 mg/kg i.p., 44 mA group): 0/8
# rotarod motor impairment/# tested ([2]; LEV alone 350 mg/kg i.p., 44 mA group): 0/8
# rotarod motor impairment/# tested ([2]; LEV alone 400 mg/kg): 0/9
# rotarod motor impairment/# tested ([2]; LEV alone 400 mg/kg i.p., 44 mA group): 0/9
# rotarod motor impairment/# tested ([2]; LEV alone 800 mg/kg): 0/12
# rotarod motor impairment/# tested ([2]; LEV alone 800 mg/kg i.p., 44 mA group): 0/12
Plasma (ng/ml) LEV, individual mice ([3]; LEV 10 mg/kg combined with Co. No. 1 2.5 mg/kg, 6 Hz 44 mA): 9780 ng/ml (2×) and 13700 ng/ml and 10100 ng/ml and 9350 ng/ml and 8580 ng/ml and 10900 ng/ml
Brain (ng/ml) LEV, individual mice [3, 4]: 4760 ng/mL and 6380 ng/mL and 3960 ng/mL and 6290 ng/mL and 7990 ng/mL
Plasma (ng/ml) LEV, individual mice [3, 4]: 3540 ng/mL and 3850 ng/mL and 7150 ng/mL and 3890 ng/mL and 6450 ng/mL and 8200 ng/mL
